Measurements published in patent publication US20090004211A1, “METHOD FOR EFFECTING LOCALIZED, NON-SYSTEMIC AND SYSTEMIC, IMMUNOGENIC TREATMENT OF CANCER USING ERP57 TRANSLOCATION” (priority 2006, published 2009).
Entries after “also recorded” stand apart in the source; their conditions may differ. Non-standard residues stand in square brackets, D forms with d. Residues, ends and D or L forms follow the SMILES beside them. *: point of attachment. Nle = CCCC[C@H](N)C(=O)O; Cbz = O=C(OCc1ccccc1)*; CH2F = FC*

Experiments:
CRT = assay: Fluorescence detection of cell surface CRT (cytofluorometry); details: for time after treatment at which CRT exposure is detectable: intact cells; for CRT exposure at cell surface: CT26 cells, agent alone; for CRT exposure of cells treated with etoposide plus inhibitor: in combination with etoposide
Protocol: CT26 cells (on a glass slide or in 12-well plates) were first washed with FACS buffer (1×PBS, 5% fetus bovine serum, and 0.1% sodium azide) and then incubated with rabbit anti-mouse CRT antibody (1:100, Stressgen), or rabbit anti-mouse ERP57 antibody (abcam) in FACS buffer at 4° C. for 30 min. […] After washing three times with FACS buffer, surface CRT and ERP57 was detected by cytofluorometric analysis on a FACS Vantage. In some experiments, cells were fixed with 4% paraformaldehyde, counterstained with Hoechst (2 μM; Sigma), followed by fluorescence microscopic assessment.
Trypsinized CT26 cells were enucleated as described. Briefly, cells were treated in 2 ml of complete RPMI medium containing cytochalasin B (10 μg/ml; Sigma) and DNase I (80 U/ml; Sigma). […] Gradients containing cell suspensions were centrifugated in a prewarmed SW41 Beckman rotor at 25 000 rpm for 20 minutes at 30° C. […] Then the cell surface CRT was detected (see materials and methods) and the viability was determined by with propidium iodine staining (2 μg/ml, Sigma) for 5 min followed by cytofluorometric analysis.

ERP57 [1] = assay: Fluorescence detection of cell surface ERP57 (cytofluorometry); type: cell-based, mouse; details: for time after treatment at which ERP57 exposure is detectable: intact cells; for ERP57 exposure at cell surface: CT26 cells, agent alone; for ERP57 exposure of cells treated with etoposide plus inhibitor: in combination with etoposide
Protocol: CT26 cells (on a glass slide or in 12-well plates) were first washed with FACS buffer (1×PBS, 5% fetus bovine serum, and 0.1% sodium azide) and then incubated with rabbit anti-mouse CRT antibody (1:100, Stressgen), or rabbit anti-mouse ERP57 antibody (abcam) in FACS buffer at 4° C. for 30 min. Cells reacted with anti-rabbit IgG (H+L) Alexa fluor 488-conjugates (1:500) in FACS buffer at 4° C. for 30 min. After washing three times with FACS buffer, surface CRT and ERP57 was detected by cytofluorometric analysis on a FACS Vantage. In some experiments, cells were fixed with 4% paraformaldehyde, counterstained with Hoechst (2 μM; Sigma), followed by fluorescence microscopic assessment.

CT26 tumor cells = assay: Anti-tumor vaccination: treated dying CT26 cells injected s.c., challenge with live tumor cells in opposite flank; type: in vivo, BALB/c mice
CT26 tumors = assay: Treatment of established CT26 tumors by single intratumoral injection; type: in vivo, BALB/c mice
Protocol: All animals were maintained in specific pathogen-free conditions and all experiments followed the FELASA guidelines. 3×10^6 treated CT26 cells were inoculated s.c. in […] of PBS into BALB/c six-week-old female mice, into the lower flank, while 5×10^5 untreated control cells were inoculated into the contralateral flank. For the tumorigenicity assay, 3×10^6 treated or untreated CT26 cells were injected s.c. into nu/nu mice. To assess the specificity of the immune response against CT26, injections of either 5×10^5 or 5×10^6 of CT26 were made (for the mice immunized in a standard protocol or vaccination protocol, respectively). Tumors were evaluated weekly, using a caliper. In a series of experiments, BALB/c (wild type or nu/nu) carrying palpable CT26 tumors (implanted 14 days before for wild type or 7 days before for nu/nu mice by injection of […] tumor cells) received a single intratumoral injection of […] PBS containing the same concentration of anti-cancer agents and PP1/GADD34 inhibitors as those used in vitro, as well as rCRT ([…]). For the assessment of local immune response, 3×10^5 cells were injected in 50 μl into the footpad of mice. Five days later, mice were sacrificed and the draining lymph nodes were harvested. 1×10^5 lymph node cells were cultured for 4 days alone or with 1×10^4 CT26 cells killed by a freeze-thaw cycle in 200 μl in round-bottom 96-well plates. IFN-γ was determined by ELISA.

ERP57 [2] = assay: Fluorescence detection of cell surface ERP57 (cytofluorometry); type: cell-based, mouse; details: murine MCA205, B16F10, J558; human HeLa, A549, HCT116
[3] = pre-incubation for 1 h with the inhibitor
[4] = CT26 cells treated in vitro with agent alone, immunocompetent BALB/c mice
[5] = agent alone, immunocompetent BALB/c mice, 14-day-old CT26 tumors
[6] = agent alone, immunodeficient nu/nu mice
[7] = immunodeficient (athymic) animals

C/C1=C/C(=O)O[C@@H]2C[C@@H](CC[C@H](C)/C=C\C=C\CC1)O[C@@](O)([C@@H]1CSC(=O)N1)C2 [latrunculin A] was tested, and the “effect on CRT exposure induced by anthracyclines and PP1/GADD34 inhibitors” value (CRT; [3]) was “abolished” and the “effect on ERP57 exposure induced by anthracyclines and PP1/GADD34 inhibitors” value (ERP57 [1]; [3]) was “abolished”.

arsenite was tested, and the “immunogenicity of cell death (protection against tumor growth on rechallenge)” value (shortened to “immunogenicity of cell death”) (CT26 tumor cells; mouse, in vivo) was “failed to induce immunogenic apoptosis”.

For CC(=O)N[C@@H](CSC(=O)[C@]1([C@@H](O)C(C)C)NC(=O)[C@H](C)[C@@H]1O)C(=O)O [loctacystin], the “immunogenicity of cell death” value (CT26 tumor cells; [4]) was “failed to induce immunogenic apoptosis”.

CCCCCCCCCCCCC/C=C/[C@@H](O)[C@H](CO)NC(=O)CCCCCCCCCCCCCCC [C16-ceramide] was tested, and the “time after treatment at which CRT exposure is detectable” value (CRT) was 1 h and the “time after treatment at which ERP57 exposure is detectable” value (ERP57 [1]) was 1 h.

In the case of CO[C@@]12[C@H](COC(N)=O)C3=C(C(=O)C(C)=C(N)C3=O)N1C[C@@H]1N[C@@H]12 [mitomycin C], the “immunogenicity of cell death” value (CT26 tumor cells; [4]) is reported as “failed to induce immunogenic apoptosis” and the “therapeutic effect of single intratumoral injection” value (CT26 tumors; mouse, in vivo) is reported as “no major therapeutic effect”.

CCCC[C@@H](C=O)NC(=O)[C@H](CC(C)C)NC(=O)[C@H](CC(C)C)NC(C)=O [ALLN] (Ac-Leu-Leu-[Nle]-aldehyde) was tested, and the “immunogenicity of cell death” value (CT26 tumor cells; [4]) was “failed to induce immunogenic apoptosis”.

In the case of O=C(/C=C/c1ccccc1)NC(NC(=S)Nc1cccc2cccnc12)C(Cl)(Cl)Cl (centres unmarked) [salubrinal], the “immunogenicity of cell death” value (CT26 tumor cells; [4]) is reported as “not sufficient to induce immunogenic cell death”, the “immunogenic potential of cells succumbing to etoposide or mitomycin C” value (CT26 tumor cells; inhibitor combined with etoposide or mitomycin C) is reported as “greatly enhanced” and the “ERP57 exposure on panel of tumor cell lines” value (ERP57 [2]) is reported as “induced”. The “CRT exposure at cell surface” value (CRT) was “efficiently induced”, the “CRT exposure of cells treated with etoposide plus inhibitor” value (CRT) was “greatly enhanced” and the “CRT exposure on panel of tumor cell lines” value (CRT; murine MCA205, B16F10, J558, human HeLa, A549, HCT116) was “induced”. For the same compound, the “ERP57 exposure at cell surface” value (ERP57 [1]) was “efficiently induced”, the “ERP57 exposure of cells treated with etoposide plus inhibitor” value (ERP57 [1]) was “greatly enhanced” and the “therapeutic effect of single intratumoral injection” value (CT26 tumors; [5]) was “no major therapeutic effect”. The “therapeutic effect of single intratumoral injection” value (CT26 tumors; [6]) was “no major therapeutic effect”, the “therapeutic effect of intratumoral injection combined with etoposide or mitomycin C” value (CT26 tumors; immunocompetent animals) was “stable disease or complete tumor regression” and the “therapeutic effect of intratumoral injection combined with etoposide or mitomycin C” value (CT26 tumors; [7]) was “not in athymic”.

With COc1cc([C@@H]2c3cc4c(cc3[C@@H](O[C@@H]3O[C@@H]5CO[C@@H](C)O[C@H]5[C@H](O)[C@H]3O)[C@H]3COC(=O)[C@H]23)OCO4)cc(OC)c1O [etoposide] the “immunogenicity of cell death” value (CT26 tumor cells; [4]) was “failed to induce immunogenic apoptosis; also recorded: poorly immunogenic”, the “therapeutic effect of single intratumoral injection” value (CT26 tumors; [5]) was “no major therapeutic effect” and the “therapeutic effect of single intratumoral injection” value (CT26 tumors; [6]) was “no major therapeutic effect”.

O=C1[O][Pt]2([NH][C@@H]3CCCC[C@H]3[NH]2)[O]C1=O [oxaliplatin] was tested, and the “time after treatment at which CRT exposure is detectable” value (CRT) was 1 h and the “time after treatment at which ERP57 exposure is detectable” value (ERP57 [1]) was 1 h.

CC(=O)O[C@@]12CO[C@@H]1C[C@H](O)[C@@]1(C)C(=O)[C@H](O)C3=C(C)[C@@H](OC(=O)[C@H](O)[C@@H](NC(=O)OC(C)(C)C)c4ccccc4)C[C@@](O)([C@@H](OC(=O)c4ccccc4)[C@H]21)C3(C)C [taxotere, Docetaxel] was tested, and the “time after treatment at which CRT exposure is detectable” value (CRT) was 1 h and the “time after treatment at which ERP57 exposure is detectable” value (ERP57 [1]) was 1 h.

With CC[C@@]1(O)C(=O)OCc2c1cc1n(c2=O)Cc2cc3ccccc3nc2-1 [camptothecin] the “immunogenicity of cell death” value (CT26 tumor cells; [4]) was “failed to induce immunogenic apoptosis”.

With COC(=O)C[C@H](NC(=O)[C@H](C)NC(=O)[C@@H](NC(=O)OCc1ccccc1)C(C)C)C(=O)CF [Z-VAD-fmk] (Cbz-Val-Ala-Asp(OMe)-CH2F) the “effect on immunogenicity of doxorubicin-elicited cell death” value (CT26 tumor cells; combined with doxorubicin) was “reduces the immunogenicity of doxorubicin-elicited cell death”.

For C/C=C(/C)C(=O)O[C@H]1C(C)=C2[C@H]([C@@H]1OC(=O)CCCCCCC)[C@@](C)(OC(C)=O)C[C@H](OC(=O)CCC)[C@@]1(O)[C@H]2OC(=O)[C@@]1(C)O [thapsigargin], the “immunogenicity of cell death” value (CT26 tumor cells; [4]) was “failed to induce immunogenic apoptosis”.

tunicamycin was tested, and the “immunogenicity of cell death” value (CT26 tumor cells; [4]) was “failed to induce immunogenic apoptosis”.

With CCCCCCCCCCCCC/C=C/[C@@H](O)[C@H](CO)NC(C)=O [C2 ceramide] the “immunogenicity of cell death” value (CT26 tumor cells; [4]) was “failed to induce immunogenic apoptosis”.

In the case of C[C@H]1CCC/C=C/[C@@H]2C[C@H](O)C[C@H]2[C@H](O)/C=C/C(=O)O1 [brefeldin], the “immunogenicity of cell death” value (CT26 tumor cells; [4]) is reported as “failed to induce immunogenic apoptosis”.

In the case of CC(=O)[C@]1(O)Cc2c(O)c3c(c(O)c2[C@@H](O[C@H]2C[C@H](N)[C@H](O)[C@H](C)O2)C1)C(=O)c1ccccc1C3=O [idarubicin], the “immunogenicity of cell death” value (CT26 tumor cells; [4]) is reported as “elicited immunogenic cell death” and the “time after treatment at which CRT exposure is detectable” value (CRT) is reported as 1 h.

CC(=O)O[C@H]1C(=O)[C@@]2(C)[C@H]([C@H](OC(=O)c3ccccc3)[C@]3(O)C[C@H](OC(=O)[C@H](O)[C@@H](NC(=O)c4ccccc4)c4ccccc4)C(C)=C1C3(C)C)[C@]1(OC(C)=O)CO[C@@H]1C[C@@H]2O [paclitaxel] was tested, and the “time after treatment at which CRT exposure is detectable” value (CRT) was 1 h and the “time after treatment at which ERP57 exposure is detectable” value (ERP57 [1]) was 1 h.

For CC(C)C[C@@H](C=O)NC(=O)[C@H](CC(C)C)NC(=O)[C@H](CC(C)C)NC(=O)OCc1ccccc1 [MG132] (Cbz-Leu-Leu-Leu-aldehyde), the “immunogenicity of cell death” value (CT26 tumor cells; [4]) was “failed to induce immunogenic apoptosis”.

In the case of CO[C@H]([C@H](O)CC(=O)[C@@H](C)[C@@H](O)CC[C@@H](C)[C@@H]1O[C@]2(CC[C@@H](C)[C@H](CC[C@H](C)C(C)=O)O2)CC[C@@H]1C)[C@H](OC(=O)C[C@@H](O)C1=C(C)C(=O)OC1=O)C(C)C [tautomycin], the “immunogenicity of cell death” value (CT26 tumor cells; [4]) is reported as “not sufficient to induce immunogenic cell death”, the “immunogenic potential of cells succumbing to etoposide or mitomycin C” value (CT26 tumor cells; mouse, in vivo) is reported as “greatly enhanced” and the “CRT exposure at cell surface” value (CRT) is reported as “efficiently induced”. The “CRT exposure of cells treated with etoposide plus inhibitor” value (CRT) was “greatly enhanced”, the “ERP57 exposure at cell surface” value (ERP57 [1]) was “efficiently induced” and the “ERP57 exposure of cells treated with etoposide plus inhibitor” value (ERP57 [1]) was “greatly enhanced”. The “therapeutic effect of single intratumoral injection” value (CT26 tumors; [5]) was “no major therapeutic effect”, the “therapeutic effect of single intratumoral injection” value (CT26 tumors; [6]) was “no major therapeutic effect” and the “therapeutic effect of intratumoral injection combined with etoposide or mitomycin C” value (CT26 tumors; immunocompetent animals) was “stable disease or complete tumor regression”. For the same compound, the “therapeutic effect of intratumoral injection combined with etoposide or mitomycin C” value (CT26 tumors; [7]) was “not in athymic”.

In the case of CCOc1ccc(-c2nc3ccc(-c4nc5ccc(N6CCN(C)CC6)cc5[nH]4)cc3[nH]2)cc1 [Hoechst 33342], the “immunogenicity of cell death” value (CT26 tumor cells; [4]) is reported as “failed to induce immunogenic apoptosis”.
